Laboratory results taken from ChEMBL document CHEMBL3044804, “Morphogenetic and Toxic Activity of Seven Novel 2, 2-Dimethylchromene Derivatives on Larvae of Oncopeltus fasciatus and Pieris brassicae” (1991).

Experiments:
Type in all cases: functional
[1] = system: Pieris brassicae; test: Insecticidal activity against fourth-instar larvae of Pieris brassicae assessed as mortality per insect after 5 days
[2] = system: Oncopeltus fasciatus; test: Morphogenetic activity against fourth-instar nymphs of Oncopeltus fasciatus assessed as occurrence of precocious metamorphosis at 3 ug/cm'2
[3] = system: Oncopeltus fasciatus; test: Morphogenetic activity against second-instar nymphs of Oncopeltus fasciatus assessed as mortality at 3 ug/cm'2
[4] = system: Oncopeltus fasciatus; test: Morphogenetic activity against third-instar nymphs of Oncopeltus fasciatus assessed as occurrence of precocious metamorphosis at 3 ug/cm'2
[5] = system: Oncopeltus fasciatus; test: Morphogenetic activity against fifth-instar nymphs of Oncopeltus fasciatus assessed as occurrence of precocious metamorphosis at 3 ug/cm'2

SMILES | LD50 [1] [µg] | Activity [2] [%] | Activity [3] [%] | Activity [4] [%] | Activity [5] [%]
CCOc1c(OC)cc2c(c1C)C=CC(C)(C)O2 | 71 | 37.5 | 52.5 | 0 | 
COc1c(OC2CCCC2)cc2c(c1C)C=CC(C)(C)O2 | 22.4 |  | 52.5 | 0 | 
CCC(C)Oc1cc2c(c(C)c1OC)C=CC(C)(C)O2 (configuration not stated) | 20 | 0 | 47.5 | 0 | 37.5
C#CCOc1cc2c(c(C)c1OC)C=CC(C)(C)O2 | 29.9 | 0 | 30 | 0 | 20
CCCOc1cc2c(c(C)c1OC)C=CC(C)(C)O2 | 32.7 | 80 | 15 | 0 | 0
CCOc1cc2c(cc1OC)C=CC(C)(C)O2 | 24.5 | 5 | 20 | 60 | 15
COc1cc2c(c(C)c1OC)C=CC(C)(C)O2 | 96.5 | 45 | 30 | 25 | 0
CCOc1cc2c(c(C)c1OC)C=CC(C)(C)O2 | 88.3 | 95 | 5 | 0 | 0
COc1cc2c(cc1OC)OC(C)(C)C=C2 [PROCOCENE II] | 39.5 | 27.5 | 45 | 22.5 | 5
